Results as given in patent US12070444B2, “Modulation of molecular markers using S-equol” (Board of Regents, The University of Texas System, priority 2020, dated 2024).
Entries after “also recorded” stand apart in the source; their conditions may differ.

Tests used:
[1] = tested on: AT3 mammary tumor cell line; assay: AT3 mammary tumor challenge in mice treated with S-equol and/or anti-PD-1 antibody; format: in vivo, mouse
Experimental: The following three murine mammary tumor lines were tested to determine the effects of a PD-1 inhibitor, S-equol and a combination of the two therapies on tumor growth: (1) E0771 (B6 background), (2) AT-3 (B6 background), and (3) 4T1 (BalbC background). This experimental design includes four arms (using AT-3 as an example): (1) controls, (2) αPD-1, (3) S-equol, and (4) αPD-1+S-equol (FIG. 3) by injecting into mice 2×10^5 cells subcutaneously into the 4th mammary gland fat pad. Antibodies were administered α-PD-1: 200 μg/mice by i.p. injection every 3 days and S-equol was administered at 50 mg/kg/day by oral gavage. Treatment began 7 day after tumor challenge. Tumor growth trajectories were compared within treated mice using a repeated measures linear mixed model. The primary outcome was the logarithm of the tumor size, and the test statistic is the treatment×time interaction. Tumors were measured about 10 times. The number of recipient mice use used in the studies (n=8 per group) was based on the above study.
For tumor studies, 8 to 10-week-old mice were used. M-Wnt (5 Å˜10^5 cells), E0771 (5 Å˜10^5 cells), AT-3 (2 Å˜10^5 cells), and EMT-6 (5 Å˜10^5 cells) tumor cells were subcutaneously inoculated into the fourth mammary pad. B16F10 (0.5 Å˜10^6 cells) and MC38 (5 Å˜10^6 cells) tumor cells were subcutaneously inoculated into the back flank. Tumor volume was measured with calipers (0.5 Å˜length Å˜width2) on the indicated days. Anti-IgG2a (BioXcell, Cat: #BE0146) and anti-PD-1 (BioXcell, Cat: #BE0089) antibodies were administered through intraperitoneal (i.p.) injection at a dose of […] every 3 days starting on day 7 after tumor challenge for the duration as indicated. S-equol (from Ausio Pharmaceuticals) was administered daily by oral gavage at 50 mg/kg beginning on the day of tumor challenge and continuing throughout the entire tumor growth experiments.

[2] = tested on: MDA-MB-231 cell-derived xenograft tumor; assay: MDA-MB-231 xenograft in athymic nude mice; format: in vivo
Experimental: Further work in a preclinical animal model supports the notion of using S-equol to treat TNBC breast cancer. In immunocompromised mouse xenograft experiments, which used MDA-MB-231, a human TNBC breast cancer cell line, growth of tumors was suppressed by 60% with S-equol treatment compared to control. 5×10^6 MDA-MB-231 cells were injected orthotopically into mammary gland fat pads of 6 week-old female athymic nude mice (Harlan). When the tumor masses reached 50 to 80 mm^3 (about one week after the inoculation), the mice were given daily subcutaneous injections of S-equol (20 or 60 mg/kg per day) or PBS as a vehicle control. Tumor development was followed by caliper measurements along two orthogonal axes: length (L) and width (W) and volume (V) was estimated by the formula V=[L×(W^2)]/2. […] Representative tumor sections from vehicle control and S-equol-treated mice were tested for Ki-67 expression to assess cell proliferation, and for ERβ ([…]. Statistical significance in the experiments was assessed by two-tailed Student's t test. In all assays, p<0.05 was considered statistically significant. The results of these experiments are shown in FIGS. 16 and 20. See, Yuan et al. 2016 listed below, which is incorporated by reference herein for all purposes.

[3] = tested on: TNBC; assay: Neoadjuvant window trial of S-equol in TNBC patients (Example 15); format: in vivo, human; design: Cyclin D1 staining, median decrease: unit not given here
Experimental: FIG. 35. Clinical trial with TNBC patients. A neoadjuvant window trial was performed on 39 enrolled patients with TNBC confirmed on diagnostic core needle biopsy. Cohort A (20 patients) received a daily dose of 50 mg BID and Cohort B (19 patients) received a higher dose of 150 mg BID for 10-21 days.
S-equol is a novel oral Estrogen Receptor (ER) Beta agonist with preclinical data showing suppression of TNBC cellular proliferation. A neoadjuvant window trial was performed on 39 enrolled patients with TNBC confirmed on diagnostic core needle biopsy. Cohort A (20 patients) received a daily dose of 50 mg BID and Cohort B (19 patients) received a higher dose of 150 mg BID for 10-21 days. (FIG. 35.) Paired biopsies were evaluable for 36 patients. Primary outcome was a change from pre- to post-treatment Ki-67 and secondary outcomes were included as correlative biomarkers. […] The average decrease in Ki-67 was 8% (P=0.00206, 95% CI−13.46 to −3.26).

[4] = tested on: B16; assay: B16 tumors in mice with subcutaneous S-equol (Example 6, present tense); format: in vivo, mouse; details: B16 cells, daily s.c. S-equol 20 or 60 mg/kg per day vs PBS
Experimental: Further work in a preclinical animal model supports the notion of using S-equol to treat melanoma. In immunocompromised mouse experiments, using B16, a murine tumor cell line know to be useful to study human melanoma metastasis and solid tumor formation, growth of tumors is suppressed with S-equol treatment compared to control. 0.5×10^6 B16 cells are injected into normal BL mice. When the tumor masses reach 50 to 80 mm^3 (about one week after the inoculation), the mice are given daily subcutaneous injections of S-equol (20 or 60 mg/kg per day) or PBS as a vehicle control. Tumor development is followed by caliper measurements along two orthogonal axes: length (L) and width (W) and volume (V) is estimated by the formula V=[L×(W^2)]/2. Tumors harvested from mice are fixed in 10% neutral-buffered formalin, dehydrated, embedded in paraffin, and sectioned at 3 μm thickness. Representative tumor sections from vehicle control and S-equol-treated mice are tested for Ki-67 expression to assess cell proliferation, and for ERβ pY36. Statistical significance in the experiments is assessed by two-tailed Student's t test. In all assays, p<0.05 is considered statistically significant.

[5] = target: T1, ERβ pY36 (Homo sapiens, UniProt Q92731); details: breast cancer cells; published work (Yuan, 2016); cited from earlier work
T1 construct: host or cells: MDA-MB-231 (human TNBC cell line)
T1 sequence (Q92731 whole entry): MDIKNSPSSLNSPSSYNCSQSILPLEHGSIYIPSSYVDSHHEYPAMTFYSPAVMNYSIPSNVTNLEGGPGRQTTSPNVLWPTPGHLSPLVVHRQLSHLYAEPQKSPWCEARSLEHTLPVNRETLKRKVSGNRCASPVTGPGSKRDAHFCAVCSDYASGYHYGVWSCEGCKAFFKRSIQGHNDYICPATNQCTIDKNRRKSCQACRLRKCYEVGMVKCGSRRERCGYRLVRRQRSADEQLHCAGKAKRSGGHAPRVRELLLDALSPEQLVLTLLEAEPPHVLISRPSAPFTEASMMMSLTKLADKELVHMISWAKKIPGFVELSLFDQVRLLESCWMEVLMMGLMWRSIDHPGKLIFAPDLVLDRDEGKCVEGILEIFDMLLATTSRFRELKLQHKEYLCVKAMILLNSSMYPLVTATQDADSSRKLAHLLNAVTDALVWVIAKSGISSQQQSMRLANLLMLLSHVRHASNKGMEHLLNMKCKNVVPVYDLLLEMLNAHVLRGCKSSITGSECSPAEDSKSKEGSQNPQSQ

With Oc1ccc([C@H]2COc3cc(O)ccc3C2)cc1 [S-equol] as the compound, how does the tumor weight ([1]; AT3 (FIG. 12B)) read?
Its tumor weight is “reduce tumor weight compared to control”.

What about the tumor size ([1]; AT3, excised tumors (FIG. 12C)) of the same compound?
The tumor size was “reduce tumor size compared to control”.

What about the tumor volume ([1]; AT3, anti-PD-1 200 μg every 3 days, S-equol 50 mg/kg per day, over 35 days post-challenge (FIG. 12A)) of the same compound?
The tumor volume was “reduce tumor volume compared to control”.

What about the xenograft tumor growth ([2]; S-equol vs vehicle (FIG. 16B, FIG. 20)) of the same compound?
Its xenograft tumor growth is “inhibited; also recorded: reduces the growth of TNBC cells”.

What about the “growth of tumors suppressed compared to control” value ([2]; daily s.c. S-equol 20 or 60 mg/kg per day vs PBS) of the same compound?
The value was 60%.

And the “mean posttreatment Ki-67” value ([3]; 36 evaluable patients, S-equol 50 mg BID or 150 mg BID for 10-21 days, mean pre-treatment Ki-67 68%)?
Its value is 59%.

What about the tolerability ([3]; oral, patients with TNBC) of the same compound?
The tolerability was “well tolerated”.

And the “proliferation as measured by Ki-67 (in words)” value ([3]; patients with TNBC)?
Its value is “inhibition of proliferation”.

What about the “change in CD3 or CD8 staining” value ([3]; pre- and post-treatment paired tumor samples) of the same compound?
The value was “no significant change; also recorded: did not significantly change”.

What about the “average decrease in Ki-67” value ([3]; pre- to post-treatment, P=0.00206, 95% CI −13.46 to −3.26) of the same compound?
Its value is 8%.

What about the “patients with a Ki-67 decrease of at least 20% from baseline” value ([3]; share of the patients) of the same compound?
Its value is 28%.

What about the “Cyclin D1 staining, median decrease” value ([3]; with S-equol exposure, range −27.5-0.0) of the same compound?
The value was 12.5.

What about the “ER-beta expression by IHC (in words)” value ([3]; with exposure to S-equol) of the same compound?
Its value is “decreased”.

And the “cyclin D1 staining by IHC (in words)” value ([3]; with exposure to S-equol)?
The value was “decreased”.

What about the “ER Beta IHC expression, median decrease” value ([3]; with exposure to S-equol, range −65.00 to −19.50) of the same compound?
Its value is 45%.

What about the “growth of tumors compared to control” value [4] of the same compound?
The value was “suppressed”.

What about the “human ERβ phosphorylation at Y36” value [5] of the same compound?
Its value is “promotes”.
